Experimental findings from US9845310B2 (priority 2015, dated 2017) are described below.

pEC50: −log10 of the molar value.

In the first assay the target is APJ (Homo sapiens (Human), UniProt P35414). The assay can be described thus: [35S]GTPγS binding assay on membranes from CHO cells stably expressing human APJ receptor. In kind it is biochemical. The conditions noted are these: Activity hAPJ SPA EC50 IP (μM). Background: GTPγS resists hydrolysis and so accumulates on activated G proteins.
Sequence of APJ (P35414 whole entry): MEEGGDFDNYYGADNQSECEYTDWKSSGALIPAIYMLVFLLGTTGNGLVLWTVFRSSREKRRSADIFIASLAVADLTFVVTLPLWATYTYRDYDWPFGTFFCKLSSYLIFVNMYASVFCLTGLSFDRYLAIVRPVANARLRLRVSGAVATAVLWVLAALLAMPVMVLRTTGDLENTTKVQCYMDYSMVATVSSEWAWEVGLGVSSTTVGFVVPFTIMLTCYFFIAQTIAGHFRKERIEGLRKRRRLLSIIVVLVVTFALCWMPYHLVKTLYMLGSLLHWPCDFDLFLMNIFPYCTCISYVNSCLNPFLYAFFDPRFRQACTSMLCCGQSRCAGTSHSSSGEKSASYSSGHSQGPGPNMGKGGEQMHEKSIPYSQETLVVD
Procedure: A GTPγS binding assay was performed on membranes prepared from CHO cells stably expressing human APJ receptor. The optimum experimental conditions for the concentrations of GDP, MgCl2, and NaCl in the assay buffer were initially determined. The assay was performed in assay buffer [20 mM HEPES, pH 7.5, 5 mM MgCl2, and 0.1% (w/v) BSA with 200 mM NaCl, 3 M GDP] and membranes expressing human APJ receptor/well along with WGA PS beads. The reaction was initiated by addition of 0.2 nM [^35S]GTPγS (Perkin Elmer Life and Analytical Sciences, Waltham USA) in the absence or presence of various ligands and incubated at RT for 90 min. Nonspecific binding was determined in the presence of 100 M GTPγS and was always less than 0.2% of total binding.
In turn, `COc1cccc(OC)c1-n1c(NS(=O)(=O)[C@@H](C)[C@H](C)c2ncc(C)cn2)nnc1-c1cncc(C2CC2)c1` [Example 734.0, (2S,3R)-N-(5-(5-cyclopropylpyridin-3-yl)-4-(2,6-dimethoxyphenyl)-4H-1,2,4-triazol-3-yl)-3-(5-methylpyrimidin-2-yl)butane-2-sulfonamide] registered a half-maximal effective concentration (EC50) of 0.002 µM.

Compound `COc1cccc(OC)c1-n1c(NS(=O)(=O)[C@@H](C)[C@H](C)c2ncc(F)cn2)nnc1-c1cccnc1` (single isomer, unassigned) [Example 183.0, (2R,3S)-N-(4-(2,6-dimethoxyphenyl)-5-(3-pyridinyl)-4H-1,2,4-triazol-3-yl)-3-(5-fluoro-2-pyrimidinyl)-2-butanesulfonamide or (2S,3R)-N-(4-(2,6-dimethoxyphenyl)-5-(3-pyridinyl)-4H-1,2,4-triazol-3-yl)-3-(5-fluoro-2-pyrimidinyl)-2-butanesulfonamide] displayed an EC50 of 0.06 µM.

As to `CC#C[C@@H](O)[C@H](C)S(=O)(=O)Nc1nnc(-c2cncc(C)c2)n1-c1c(OC)cccc1OC` (racemic) [Example 764.0, (2R,3S)-N-(4-(2,6-dimethoxyphenyl)-5-(5-methyl-3-pyridinyl)-4H-1,2,4-triazol-3-yl)-3-hydroxy-4-hexyne-2-sulfonamide and (2S,3R)-N-(4-(2,6-dimethoxyphenyl)-5-(5-methyl-3-pyridinyl)-4H-1,2,4-triazol-3-yl)-3-hydroxy-4-hexyne-2-sulfonamide], the concentration for a half-maximal effect (EC50) worked out at 0.027 µM.

In turn, `COc1cccc(OC)c1-n1c(NS(=O)(=O)[C@@H](C)[C@H](OC)c2ncnn2C)nnc1-c1cncc(C)c1` (single isomer, unassigned) [Example 782.0, (1R,2S)-N-(4-(2,6-dimethoxyphenyl)-5-(5-methyl-3-pyridinyl)-4H-1,2,4-triazol-3-yl)-1-methoxy-1-(1-methyl-1H-1,2,4-triazol-5-yl)-2-propanesulfonamide or (1S,2R)-N-(4-(2,6-dimethoxyphenyl)-5-(5-methyl-3-pyridinyl)-4H-1,2,4-triazol-3-yl)-1-methoxy-1-(1-methyl-1H-1,2,4-triazol-5-yl)-2-propanesulfonamide] registered an EC50 of 0.028 µM.

For `COc1cccc(-c2nnc(NS(=O)(=O)[C@@H](C)[C@H](OC(C)C)c3ncc(C)cn3)n2-c2c(OC)cccc2OC)n1` (single isomer, unassigned) [Example 96.0], the EC50 amounted to 0.00026 µM.

As to `COc1cccc(-c2nnc(NS(=O)(=O)C[C@H](O)c3ccc(F)cc3S(C)(=O)=O)n2-c2c(OC)cccc2OC)n1` (mixture of isomers) [Example 267.0, (R)-N-(4-(2,6-dimethoxyphenyl)-5-(6-methoxypyridin-2-yl)-4H-1,2,4-triazol-3-yl)-2-(4-fluoro-2-(methylsulfonyl)phenyl)-2-hydroxyethanesulfonamide and (S)-N-(4-(2,6-dimethoxyphenyl)-5-(6-methoxypyridin-2-yl)-4H-1,2,4-triazol-3-yl)-2-(4-fluoro-2-(methylsulfonyl)phenyl)-2-hydroxyethanesulfonamide], the response was half-maximal at 0.00015 µM (EC50).

`CC#Cc1cnc([C@@H](OC)[C@H](C)S(=O)(=O)Nc2nnc(-c3cncc(C)c3)n2-c2c(OC)cccc2OC)nc1` [Example 535.0, (1R,2S)-N-(4-(2,6-dimethoxyphenyl)-5-(5-methylpyridin-3-yl)-4H-1,2,4-triazol-3-yl)-1-methoxy-1-(5-(prop-1-yn-1-yl)pyrimidin-2-yl)propane-2-sulfonamide] registered an EC50 of 0.0013 µM.

As for `COc1cccc(-c2nnc(NS(=O)(=O)C[C@H](O)c3ccc(F)cn3)n2-c2c(OC)cccc2OC)n1` (mixture of isomers) [Example 315.0, (2R)-N-(4-(2,6-dimethoxyphenyl)-5-(6-methoxy-2-pyridinyl)-4H-1,2,4-triazol-3-yl)-2-(5-fluoro-2-pyridinyl)-2-hydroxyethanesulfonamide and (2S)-N-(4-(2,6-dimethoxyphenyl)-5-(6-methoxy-2-pyridinyl)-4H-1,2,4-triazol-3-yl)-2-(5-fluoro-2-pyridinyl)-2-hydroxyethanesulfonamide], the EC50 was 0.00032 µM.

`COc1cccc(-c2nnc(NS(=O)(=O)C[C@H](O)c3ccc(C#N)cc3S(C)(=O)=O)n2-c2c(OC)cccc2OC)n1` (mixture of isomers) [Example 481.0, (2S)-2-(4-cyano-2-(methylsulfonyl)phenyl)-N-(4-(2,6-dimethoxyphenyl)-5-(6-methoxy-2-pyridinyl)-4H-1,2,4-triazol-3-yl)-2-hydroxyethanesulfonamide and (2R)-2-(4-cyano-2-(methylsulfonyl)phenyl)-N-(4-(2,6-dimethoxyphenyl)-5-(6-methoxy-2-pyridinyl)-4H-1,2,4-triazol-3-yl)-2-hydroxyethanesulfonamide] returned a 50% effective concentration (EC50) of 0.00024 µM.

On to `COc1cccc(-c2nnc(NS(=O)(=O)[C@@H](C)[C@H](OC)c3ncc(C)cn3)n2-c2c(OC)ccnc2OC)n1` (single isomer, unassigned) [Example 771.0], for which the EC50 was 0.002 µM.

In turn, `COc1cccc(OC)c1-n1c(NS(=O)(=O)C[C@H](O)c2ccc(Cl)cc2S(C)(=O)=O)nnc1-c1cncc(C)c1` (mixture of isomers) [Example 457.0, (2R)-2-(4-chloro-2-(methylsulfonyl)phenyl)-N-(4-(2,6-dimethoxyphenyl)-5-(5-methyl-3-pyridinyl)-4H-1,2,4-triazol-3-yl)-2-hydroxyethanesulfonamide and (2S)-2-(4-chloro-2-(methylsulfonyl)phenyl)-N-(4-(2,6-dimethoxyphenyl)-5-(5-methyl-3-pyridinyl)-4H-1,2,4-triazol-3-yl)-2-hydroxyethanesulfonamide] yielded a half-maximal effective concentration (EC50) of 0.0003 µM.

In turn, `COc1ccnc(OC)c1-n1c(NS(=O)(=O)[C@@H](C)[C@H](OC)c2ccc(Cl)cn2)nnc1-c1cccnc1` (single isomer, unassigned) [Example 715.0, (1R,2S,P)-1-(5-chloro-2-pyridinyl)-N-(4-(2,4-dimethoxy-3-pyridinyl)-5-(3-pyridinyl)-4H-1,2,4-triazol-3-yl)-1-methoxy-2-propanesulfonamide or (1R,2S,M)-1-(5-chloro-2-pyridinyl)-N-(4-(2,4-dimethoxy-3-pyridinyl)-5-(3-pyridinyl)-4H-1,2,4-triazol-3-yl)-1-methoxy-2-propanesulfonamide] showed a concentration giving a half-maximal response (EC50) of 0.00031 µM.

The same assay, now with this note: read-out: Activity hAPJ SPA EC50 IP.
For the compound `COc1cccc(-c2nnc(NS(=O)(=O)[C@H](C)[C@@H](O)c3cn(C)cn3)n2-c2c(OC)cccc2OC)n1` (mixture of isomers) [Example 258.0, (1S,2R)-N-(4-(2,6-dimethoxyphenyl)-5-(6-methoxypyridin-2-yl)-4H-1,2,4-triazol-3-yl)-1-hydroxy-1-(1-methyl-1H-imidazol-4-yl)propane-2-sulfonamide and (1R,2S)-N-(4-(2,6-dimethoxyphenyl)-5-(6-methoxypyridin-2-yl)-4H-1,2,4-triazol-3-yl)-1-hydroxy-1-(1-methyl-1H-imidazol-4-yl)propane-2-sulfonamide], the pEC50 is 8.70.

On to `COc1cccc(OC)c1-n1c(NS(=O)(=O)[C@H](C)[C@@H](OC(C)C)c2ncc(C)cn2)nnc1-c1cccnc1` (stereo in doubt) [Example 626.0, (1S,2R)-N-(4-(2,6-dimethoxyphenyl)-5-(3-pyridinyl)-4H-1,2,4-triazol-3-yl)-1-(1-methylethoxy)-1-(5-methyl-2-pyrimidinyl)-2-propanesulfonamide, (1R,2S)-N-(4-(2,6-dimethoxyphenyl)-5-(3-pyridinyl)-4H-1,2,4-triazol-3-yl)-1-(1-methylethoxy)-1-(5-methyl-2-pyrimidinyl)-2-propanesulfonamide], for which the pEC50 was 8.74.

`COc1cccc(-c2nnc(NS(=O)(=O)[C@@H]3CCCO[C@@H]3c3ncc(C)cn3)n2-c2c(OC)cccc2OC)n1` (single isomer, unassigned) [Example 655.0]: the negative-log EC50 (pEC50) is 6.89.

Turning to `COc1cccc(-c2nnc(NS(=O)(=O)[C@@H](C)[C@H](OC)c3ccc(C#N)cc3C#N)n2-c2c(OC)cccc2OC)n1` (mixture of isomers) [Example 473.0], the negative logarithm of the EC50 (pEC50) was 9.64.

On to `COc1cccc(-c2nnc(NS(=O)(=O)[C@H](C)[C@H](O)c3cn(C)cn3)n2-c2c(OC)cccc2OC)n1` (mixture of isomers) [Example 259.0, (1R,2R)-N-(4-(2,6-dimethoxyphenyl)-5-(6-methoxypyridin-2-yl)-4H-1,2,4-triazol-3-yl)-1-hydroxy-1-(1-methyl-1H-imidazol-4-yl)propane-2-sulfonamide and (1S,2S)-N-(4-(2,6-dimethoxyphenyl)-5-(6-methoxypyridin-2-yl)-4H-1,2,4-triazol-3-yl)-1-hydroxy-1-(1-methyl-1H-imidazol-4-yl)propane-2-sulfonamide], for which the pEC50 was 7.96.

For the compound `COc1cccc(OC)c1-n1c(NS(=O)(=O)[C@@H](C)[C@@H](OC(C)C)c2ncc(C)cn2)nnc1-c1cccnc1` (stereo in doubt) [Example 625.0], the pEC50 is 6.96.

For `COc1cccc(OC)c1-n1c(NS(=O)(=O)[C@@H]2CCCO[C@@H]2c2ncc(C)cn2)nnc1-c1cncc(C)c1` (single isomer, unassigned) [Example 644.0], the negative-log EC50 (pEC50) was 6.74.

In the case of `COc1cccc(-c2nnc(NS(=O)(=O)[C@@H]3CCCO[C@@H]3c3ncc(C)cn3)n2-c2c(OC)cccc2OC)n1` (single isomer, unassigned) [Example 656.0], the pEC50 was 7.89.

As for `COc1cccc(OC)c1-n1c(NS(=O)(=O)[C@@H](C)Cc2ncc(F)cn2)nnc1-c1cncc(Cl)c1` (mixture of isomers) [Example 219.0, (2S)-N-(5-(5-chloro-3-pyridinyl)-4-(2,6-dimethoxyphenyl)-4H-1,2,4-triazol-3-yl)-1-(5-fluoro-2-pyrimidinyl)-2-propanesulfonamide and (2R)-N-(5-(5-chloro-3-pyridinyl)-4-(2,6-dimethoxyphenyl)-4H-1,2,4-triazol-3-yl)-1-(5-fluoro-2-pyrimidinyl)-2-propanesulfonamide], the pEC50 was 8.07.

Usually EC50 stands for the midpoint of the concentration-response curve. Low readings indicate a more potent agent, high ones a less potent agent. Usually pEC50 stands for −log10 of the EC50, conventionally taken in molar units.
